# In publication PMC6881072, “The repositioning of epigenetic probes/inhibitors identifies new anti-schistosomal lead compounds and chemotherapeutic targets” (PLoS Neglected Tropical Diseases, 2019):
# Entries after “also recorded” stand apart in the source; their conditions may differ. Read-outs that look alike come from different tables or passages of the source.
# Legend:
# [1] = HepG2 cell cytotoxicity, MTT assay; format: cell-based, Human; conditions: human, read-out: CC50 (HepG2) (95% Confidence Intervals)
# Protocol: Human Hepatocyte Carcinoma (HepG2) cells (Sigma Aldrich, UK) were utilized to assess SGC epigenetic probe cell cytotoxicity in the application of the MTT (3-(4,5-dimethylthiazol-2-yl)-2,5-diphenyltetrazolium bromide) assay. Briefly, cells were passaged at 70–80% confluence and seeded (20,000 cells/ 50 μL per well) in a 96-well, black-sided, clear-bottomed falcon plate (Fisher Scientific, UK) with the final plate column (8 wells) being treated as a blank (media only). Following a 24 h incubation (5% CO2, 37°C, humidified), HepG2 cells were then treated with 50 μL of pre-warmed media (37°C) containing SGC EPs/EIs at 200 μM to 0.02 μM (final concentration 100 μM, 10 μM, 1 μM, 0.1 μM and 0.01 μM). Three positive (1% Triton X-100) and negative (1% DMSO) control wells per plate were additionally included.
# After addition of compounds, each plate was then incubated for a further 20 h before application of MTT for assessment of overt compound cytotoxicity using the MTT assay. The MTT assay was read using the POLARstar Omega (BMG LabTech, UK) plate reader at an absorbance of 570 nm. CC50s were calculated in GraphPad Prism.
# [2] = system: adult male and female schistosome pairs; test: In vitro adult schistosome screening (WHO/TDR motility, egg counts); format: cell-based, Schistosoma mansoni; conditions: for EC50: Schistosoma mansoni, 72 h
# Protocol: In vitro screening was replicated three times on different dates to account for any biological variation. Briefly three adult worm pairs/well (48-well tissue culture plate format) were placed into DMEM (Gibco, Paisley, UK) supplemented with 10% (v/v) FCS (Gibco, Paisley, UK), 1% (v/v) L-glutamine (Gibco, Paisley, UK) and an antibiotic mixture (150 Units/ml penicillin and 150 μg/ml streptomycin; Gibco, UK). DMSO (0.5% negative control), AUR (10 μM concentration in 0.5% DMSO; positive control) and two-fold titrations of SGC compounds (50 μM– 6.25 μM or 50 μM– 0.05 μM; in 0.5% DMSO max) were added, and together, these adult worm/compound co-cultures were incubated at 37°C for 72 h in a humidified atmosphere containing 5% CO2. Following compound incubation, WHO/TDR readouts of adult worm motility, abundance of H3K36me2 (LLY-507 and BAY-598 treated worms only) in histone extracts and egg counts/well were recorded at 72 h.
# S. mansoni schistosomula = test: In vitro schistosomula screening (Roboworm platform), phenotype and motility; format: cell-based, Schistosoma mansoni; conditions: for hit / activity against schistosomula, single-point screen: hit cut-offs phenotype -0.15, motility -0.35; for EC50: Schistosoma mansoni
# Protocol: Briefly, 384-well tissue culture plates (Perkin Elmer, cat 6007460), containing 20 μl of Basch medium, were wet-stamped using a Biomek NX^P liquid handling platform (Beckman Coulter, UK) with negative (0.625% dimethyl sulfoxide, DMSO) and positive controls (AUR and PZQ at 10 μM final concentration in 0.625% DMSO) as well as 37 SGC compounds (at 10 μM final concentration in 0.625% DMSO). […] To each pre-loaded well (single concentration or titration screens), a total of 100–120 mechanically transformed schistosomula (in 60 μl) were deposited via a WellMate (Thermo Scientific, UK). Schistosomula/compound co-cultures (80 μl in total) were then incubated at 37°C for 72 h in a humidified atmosphere containing 5% CO2. At 72 h, tissue culture plates (containing schistosomula/compound co-cultures) were imaged under the same conditions (37°C in a humidified atmosphere containing 5% CO2) using an ImageXpressXL high content imager (Molecular Devices, UK) with subsequent images processed for phenotype and motility as previously reported and successfully implemented by us at Aberystwyth University. Single point schistosomula screens (10 μM) were repeated two or three times whereas dose response titrations were performed once. Zˊ values obtained from all schistosomula screens ranged from 0.27–0.48 (mean = 0.40) for phenotype and 0.41–0.56 (mean = 0.48) for motility.
# [3] = motility, adult females, read-out: ADULT EC50 (95% Confidence Intervals) Females
# [4] = motility, adult males, read-out: ADULT EC50 (95% Confidence Intervals) Males
# [5] = CC50 HepG2 / schistosomula motility EC50
# [6] = CC50 HepG2 / schistosomula phenotype EC50
# [7] = 72 h, two-fold titration 10 μM–0.625 μM, single replicate, approximate, read-out: SCHISTOSOMULA EC50 Motility
# [8] = 72 h, two-fold titration 10 μM–0.625 μM, single replicate, approximate, read-out: SCHISTOSOMULA EC50 Phenotype
# [9] = read-out: ADULT EC50 (95% Confidence Intervals) Females
# [10] = read-out: ADULT EC50 (95% Confidence Intervals) Males
# [11] = 72 h, read-out: SCHISTOSOMULA EC50 Motility
# [12] = 72 h, read-out: SCHISTOSOMULA EC50 Phenotype
Compound,CC50 at 20 h ([1]; HepG2 cells) [µM],"EC50 [2, 3] [µM]","EC50 [2, 4] [µM]","hit / activity against schistosomula, single-point screen (S. mansoni schistosomula; 10 μM, 72 h)",EC50 (S. mansoni schistosomula; [7]) [µM],EC50 (S. mansoni schistosomula; [8]) [µM],SELECTIVITY INDEX Adult Females ([2]; CC50 HepG2 / adult female EC50),SELECTIVITY INDEX Adult Males ([2]; CC50 HepG2 / adult male EC50),SELECTIVITY INDEX Schistosomula Motility (S. mansoni schistosomula; [5]),SELECTIVITY INDEX Schistosomula Phenotype (S. mansoni schistosomula; [6]),further results
"COc1ccc(CCc2nc3cc(-c4c(C)noc4C)ccc3n2CC(C)N2CCOCC2)cc1Cl (stereo not drawn) [SGC-CBP30, 8-(3-chloro-4-methoxy-phenethyl)-4-(3,5-dimethyl-isoxazol-4-yl)-9-(2-(morpholin-4-yl)-propyl)-7,9-diaza-bicyclo[4.3.0]nona-1(6),2,4,7-tetraene]",> 50,31.2,33.5,demonstrated activity against schistosomula,4.99,3.19,–,–,–,–,S[…] Adult Females ([2]; CC50 HepG2 / adult female EC50): 1.6; S[…] Adult Males ([2]; CC50 HepG2 / adult male EC50): 1.49; S[…] Schistosomula Motility (S. mansoni schistosomula; [5]): 10.03; S[…] Schistosomula Phenotype (S. mansoni schistosomula; [6]): 15.69
"CC(C)Oc1ccc(-c2c[nH]cc2CN(C)CCN)cc1 [MS023, 3-(((2-amino-ethyl)-methyl-amino)-methyl)-4-(4-(1-methyl-ethoxy)-phenyl)-1H-pyrrole]",16.2,26.3,26.2,–,6.45,3.92,0.62,0.62,2.52,4.14,–
CCCc1cc(C)n(C)c(=O)c1CN(C)C(=O)c1cc(-c2ccc(N3CCN(C(C)C)CC3)nc2)cc2c1cnn2C(C)C [UNC2400],–,–,–,None of these chemotype controls demonstrated anti-schistosomula activity,–,–,–,–,–,–,–
"CCC(=O)N1CCOc2c(cc(-c3ccc(OC)c(OC)c3)cc2OC[C@H]2CCCN(C)C2)C1 [I-CBP112, 1-[7-(3,4-dimethoxyphenyl)-9-{[(3S)-1-methylpiperidin-3-yl]methoxy}-2,3,4,5-tetrahydro-1,4-benzoxazepin-4-yl]propan-1-one]",–,–,–,did not,–,–,–,–,–,–,–
"CCCc1cc(C)[nH]c(=O)c1CNC(=O)c1cc(-c2ccc(N3CCN(C(C)C)CC3)nc2)cc2c1cnn2C(C)C [UNC1999, N-[(6-methyl-2-oxo-4-propyl-1,2-dihydropyridin-3-yl)methyl]-1-(propan-2-yl)-6-{6-[4-(propan-2-yl)piperazin-1-yl]pyridin-3-yl}-1H-indazole-4-carboxamide]",31.4,16.1,13.5,are hits against schistosomula,2.82,4.2,1.95,2.32,11.16,7.48,–
CCN(C(=O)CO)C1CN(C(=Nc2cccc(OC(F)F)c2)NC#N)N=C1c1ccccc1 (stereo not drawn) [BAY-369],–,–,–,None of these chemotype controls demonstrated anti-schistosomula activity; also recorded: is not,–,–,–,–,–,–,–
CC(=O)Nc1ccc(C(=O)Nc2ccccc2N)cc1 [CI-994],–,–,–,non-hit,–,–,–,–,–,–,–
"CCn1cc(-c2cccc(C(F)(F)F)c2)c2sc(C(=N)NC3CCS(=O)(=O)CC3)cc2c1=O [I-BRD9, N-(1,1-dioxidotetrahydro-2H-thiopyran-4-yl)-5-ethyl-4-oxo-7-(3-(trifluoromethyl)phenyl)-4,5-dihydrothieno[3,2-c]pyridine-2-carboximidamide]",31.4,24,28.5,–,4.13,1.29,1.31,1.10,7.61,24.44,–
"Cc1sc2c(c1C)C(c1ccc(Cl)cc1)=N[C@@H](CC(=O)OC(C)(C)C)c1nnc(C)n1-2 [JQ1, [(S)-4-(4-Chloro-phenyl)-2,3,9-trimethyl-6H-1-thia-5,7,8,9a-tetraaza-cyclopenta[e]azulen-6-yl]-acetic acid tert-butyl este]",–,–,–,–,–,–,0.73,0.92,5.53,3.56,"CC50 at 20 h [1]: 16.8 µM; EC50 [2, 9]: 22.8 µM; EC50 [2, 10]: 18.3 µM; EC50 (S. mansoni schistosomula; [11]): 3.04 µM; EC50 (S. mansoni schistosomula; [12]): 4.72 µM"
O=C(/C=C/c1ccc(CN(CCO)CCc2c[nH]c3ccccc23)cc1)NO [LAQ824],15.6,16.5,25,hit,2.45,2.22,0.95,0.63,6.40,7.04,–
CCOC(=O)CCNc1cc(N2CCc3ccccc3CC2)nc(-c2cccnc2)n1 [GSKJ5],–,–,–,None of these chemotype controls demonstrated anti-schistosomula activity,–,–,–,–,–,–,–
"Clc1cc2c(NC3CCCC3)nnc(-c3ccncc3)c2cc1Cl [A-196, 8,9-dichloro-N-cyclopentyl-5-(pyridin-4-yl)-3,4-diaza-bicyclo[4.4.0]deca-1(10),2,4,6,8-pentaen-2-amine]",> 50,16,22.3,–,4.78,1.39,3.13,2.24,10.45,36.00,–
"CCCS(=O)(=O)c1nc(NC2CC2)cc(-c2ccc3c(ccn3C3CC(C)(C)NC(C)(C)C3)c2)n1 [NVS-CECR2-1, N-cyclopropyl-2-propylsulfonyl-6-[1-(2,2,6,6-tetramethylpiperidin-4-yl)indol-5-yl]pyrimidin-4-amine]",–,–,–,–,–,–,1.73,3.11,3.60,4.98,"CC50 at 20 h [1]: 9.03 µM; EC50 [2, 9]: 5.21 µM; EC50 [2, 10]: 2.9 µM; schistosomula phenotype by microscopic assessment (S. mansoni schistosomula; 10 μM, 72 h): phenotypes comparable to auranofin; EC50 (S. mansoni schistosomula; [11]): 2.5 µM; EC50 (S. mansoni schistosomula; [12]): 1.81 µM"
